target: T1, E-selectin (Homo sapiens, UniProt P16581); experiment: Compound was evaluated for its inhibitory activity against adhesion of HL-60(human promyelocytic leukemia cells) to recombinant human soluble E-selectin (rhsE).
T1 sequence (P16581 whole entry): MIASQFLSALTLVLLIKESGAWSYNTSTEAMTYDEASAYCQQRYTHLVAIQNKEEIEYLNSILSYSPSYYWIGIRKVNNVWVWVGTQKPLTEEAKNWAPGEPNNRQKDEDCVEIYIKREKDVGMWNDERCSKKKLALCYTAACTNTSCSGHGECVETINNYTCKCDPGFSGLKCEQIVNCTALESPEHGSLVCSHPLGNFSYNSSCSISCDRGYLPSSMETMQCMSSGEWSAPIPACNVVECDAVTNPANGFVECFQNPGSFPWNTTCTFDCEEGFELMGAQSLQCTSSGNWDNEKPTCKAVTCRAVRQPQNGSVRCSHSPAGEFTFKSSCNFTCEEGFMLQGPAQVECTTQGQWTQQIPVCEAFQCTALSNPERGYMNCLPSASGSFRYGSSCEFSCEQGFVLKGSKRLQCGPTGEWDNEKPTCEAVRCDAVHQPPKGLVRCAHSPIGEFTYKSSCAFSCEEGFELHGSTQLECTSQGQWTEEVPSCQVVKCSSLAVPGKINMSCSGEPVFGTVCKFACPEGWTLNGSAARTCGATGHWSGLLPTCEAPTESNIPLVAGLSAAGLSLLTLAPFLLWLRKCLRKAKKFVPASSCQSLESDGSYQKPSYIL

SMILES	IC50
CC(=O)N[C@H]1[C@H]([C@H](O)[C@H](O)CO)O[C@@](O[C@@H]2[C@H](O)[C@H](O[C@H]3[C@H](O[C@@H]4O[C@@H](C)[C@@H](O)[C@H](O)[C@@H]4O)[C@H](NC(=O)c4ccc5ccccc5c4)[C@H](OCCCc4cccc(CCCO)c4)O[C@H]3CO)O[C@@H](CO)[C@@H]2O)(C(=O)O)C[C@H]1O	200 µM
COC(=O)N[C@@H]1C(O)C(OC2C(O)[C@H](O[C@@H]3C(CO)O[C@@H](OCCCO[C@@H]4CCC[C@H](OCCCO[C@@H]5OC(CO)[C@@H](O[C@@H]6OC(CO)[C@H](O)C(OC7C(O)[C@@H](NC(=O)OC)C([C@H](O)[C@H](O)CO)O[C@H]7C(=O)O)C6O)C(O[C@@H]6OC(C)[C@H](O)C(O)C6O)C5Nc5ccc6ccccc6c5)C4)C(Nc4ccc5ccccc5c4)C3O[C@@H]3OC(C)[C@H](O)C(O)C3O)OC(CO)[C@@H]2O)[C@H](C(=O)O)OC1[C@H](O)[C@H](O)CO (stereo partly drawn)	41 µM
CC(=O)N[C@@H]1[C@@H]([C@H](O)[C@H](O)CO)O[C@](O[C@H]2[C@@H](O)[C@@H](O[C@@H]3[C@@H](O[C@H]4O[C@H](C)[C@H](O)[C@@H](O)[C@H]4O)[C@@H](NC(=O)c4ccc5ccccc5c4)[C@@H](OCCc4cccc(CCO[C@@H]5O[C@@H](CO)[C@@H](O[C@@H]6O[C@@H](CO)[C@H](O)[C@H](O[C@]7(C(=O)O)C[C@@H](O)[C@@H](NC(C)=O)[C@H]([C@H](O)[C@H](O)CO)O7)[C@@H]6O)[C@H](O[C@@H]6O[C@@H](C)[C@@H](O)[C@H](O)[C@@H]6O)[C@@H]5NC(=O)c5ccc6ccccc6c5)c4)O[C@@H]3CO)O[C@H](CO)[C@H]2O)(C(=O)O)C[C@@H]1O	60 µM
COC(=O)N[C@@H]1C(O)C(OC2C(O)[C@H](O[C@@H]3C(CO)O[C@@H](OCCCO[C@H]4CCC[C@H](OCCCO[C@@H]5OC(CO)[C@@H](O[C@@H]6OC(CO)[C@H](O)C(OC7C(O)[C@@H](NC(=O)OC)C([C@H](O)[C@H](O)CO)O[C@H]7C(=O)O)C6O)C(O[C@@H]6OC(C)[C@H](O)C(O)C6O)C5Nc5ccc6ccccc6c5)C4)C(Nc4ccc5ccccc5c4)C3O[C@@H]3OC(C)[C@H](O)C(O)C3O)OC(CO)[C@@H]2O)[C@H](C(=O)O)OC1[C@H](O)[C@H](O)CO (stereo partly drawn)	49 µM
CCO[C@@H]1O[C@@H](CO)[C@@H](O[C@@H]2O[C@@H](CO)[C@H](O)[C@H](O[C@]3(C(=O)O)C[C@@H](O)[C@@H](NC(C)=O)[C@H]([C@H](O)[C@H](O)CO)O3)[C@@H]2O)[C@H](O[C@@H]2O[C@@H](C)[C@@H](O)[C@H](O)[C@@H]2O)[C@@H]1NC(C)=O	1500 µM
CC(=O)N[C@@H]1[C@@H]([C@H](O)[C@H](O)CO)O[C@](O[C@H]2[C@@H](O)[C@@H](O[C@@H]3[C@@H](O[C@H]4O[C@H](C)[C@H](O)[C@@H](O)[C@H]4O)[C@@H](NC(=O)c4ccc5ccccc5c4)[C@@H](OCc4cccc(CO[C@@H]5O[C@@H](CO)[C@@H](O[C@@H]6O[C@@H](CO)[C@H](O)[C@H](O[C@]7(C(=O)O)C[C@@H](O)[C@@H](NC(C)=O)[C@H]([C@H](O)[C@H](O)CO)O7)[C@@H]6O)[C@H](O[C@@H]6O[C@@H](C)[C@@H](O)[C@H](O)[C@@H]6O)[C@@H]5NC(=O)c5ccc6ccccc6c5)c4)O[C@@H]3CO)O[C@H](CO)[C@H]2O)(C(=O)O)C[C@@H]1O	30 µM
CO[C@H]1O[C@@H](O[C@H]2[C@H](O[C@@H]3O[C@@H](C)[C@@H](O)[C@@H](O)[C@@H]3O)[C@@H](NC(=O)c3ccc4ccccc4c3)[C@H](OCCCc3cccc(CCCO[C@@H]4O[C@H](CO)[C@@H](O[C@@H]5O[C@H](OC)[C@H](O)[C@H](O[C@]6(C(=O)O)C[C@H](O)[C@@H](NC(C)=O)[C@H]([C@H](O)[C@H](O)CO)O6)[C@H]5O)[C@H](O[C@@H]5O[C@@H](C)[C@@H](O)[C@@H](O)[C@@H]5O)[C@H]4NC(=O)c4ccc5ccccc5c4)c3)O[C@@H]2CO)[C@H](O)[C@@H](O[C@]2(C(=O)O)C[C@H](O)[C@@H](NC(C)=O)[C@H]([C@H](O)[C@H](O)CO)O2)[C@H]1O	32 µM
CC(=O)N[C@@H]1[C@@H]([C@H](O)[C@H](O)CO)O[C@](O[C@H]2[C@@H](O)[C@@H](O[C@@H]3[C@@H](O[C@H]4O[C@H](C)[C@H](O)[C@@H](O)[C@H]4O)[C@@H](NC(=O)c4ccc5ccccc5c4)[C@@H](OCCCOc4cccc(OCCCO[C@@H]5O[C@@H](CO)[C@@H](O[C@@H]6O[C@@H](CO)[C@H](O)[C@H](O[C@]7(C(=O)O)C[C@@H](O)[C@@H](NC(C)=O)[C@H]([C@H](O)[C@H](O)CO)O7)[C@@H]6O)[C@H](O[C@@H]6O[C@@H](C)[C@@H](O)[C@H](O)[C@@H]6O)[C@@H]5NC(=O)c5ccc6ccccc6c5)c4)O[C@@H]3CO)O[C@H](CO)[C@H]2O)(C(=O)O)C[C@@H]1O	37 µM

From ChEMBL document CHEMBL1151061, “Synthesis and inhibitory effects of bivalent sialyl lewis X analogs at preventing cell adhesion” (Bioorg Med Chem Lett, 1997)
